Results as given in patent US7521478B2, “Total synthesis of myriaporones” (Pharma Mar, S.A.U., priority 2002, dated 2009).
Read-outs that look alike come from different tables or passages of the source.

Legend:
Format in all cases: cell-based
[1] = tested on: K-562; assay: Inhibition of cell growth by colorimetric SRB assay, K-562; details: Homo sapiens, K562, K-562, 48 hours exposure
From the text: (§1) The finality of these assays is to interrupt the growth of a “in vitro” tumor cell culture by means a continued exhibition of the cells to the sample to be testing.
(§2) Inhibition of Cell Growth by Colorimetric Assay.
(§3) A colorimetric type of assay, using sulforhodamine B (SRB) reaction has been adapted for a quantitative measurement of cell growth and viability (following the technique described by P. A. Skehan, et al., J. Natl. CancerInst. 1990, 82, 1107-1112).
(§4) This form of assay employs 96 well cell culture microplates of 9 mm diameter (T. Mosmann et al., J. of Immuological Methods 1983, 65, 55-63; G. T. Faircloth et al., J. of Tissue and Culture Methods 1988, 11, 201-205). Most of the cell lines are obtained from American Type Culture Collection (ATCC) derived from different human cancer types.
(§5) Cells are maintained in RPMI 1640 10% FBS, supplemented with 0.1 g/L penicillin and 0.1 g/L streptomycin sulfate and then incubated at 37° C., 5% CO2 and 98% humidity. For the experiments, cells were harvested from subconfluent cultures using trypsin and resuspended in fresh medium before plating.
(§6) Cells are seeded in 96 well microtiter plates, at 5×10^3 cells per well in aliquots of 195 μL medium, and they are allowed to attach to the plate surface by growing in drug free medium for 18 hours. Afterward, samples are added in aliquots of 5 μL in a ranging from 10 to 10^−8 μg/mL, dissolved in DMSO/EtOH/PBS (0.5:0.5:99). After 48 hours exposure, the antitumor effect are measured by the SRB methodology: cells are fixed by adding 50 μL of cold 50% (wt/vol) trichloroacetic acid (TCA) and incubated for 60 minutes at 4° C. Plates are washed with deionizer water and dried. One hundred μl of SRB solution (0.4% wt/vol in 1% acetic acid) is added to each microliter well and incubated for 10 minutes at room temperature. Unbound SRB is removed by washing with 1% acetic acid. Plates are air dried and bound stain is solubilized with Tris buffer. Optical densities are read on a automated spectrophotometric plate reader at a single wavelength of 490 nm.
(§7) The values for mean +/−SD of data from triplicate wells are calculated. Some parameters for cellular responses can be calculated: GI=growth inhibition, TGI=total growth inhibition (cytostatic effect) and LC=cell killing (cytotoxic effect).

[2] = tested on: LoVo; assay: Inhibition of cell growth by colorimetric SRB assay, LOVO; details: Homo sapiens, LOVO, 48 hours exposure; for LC50: cell killing, read-out: LC50; for IC (total growth inhibition): read-out: TGI
From the text: as §1, §2, §3, §4, §5, §6, §7

[3] = tested on: HeLa-APL; assay: Inhibition of cell growth by colorimetric SRB assay, HELA-APL; details: Homo sapiens; for CC50: cell killing, read-out: LC50 (the source's name)
From the text: as §1, §2, §3, §4, §5, §6, §7

[4] = tested on: A-549; assay: Inhibition of cell growth by colorimetric SRB assay, A-549; details: Homo sapiens, A549, A-549, 48 hours exposure; for CC50: cell killing, read-out: LC50 (the source's name); for IC (total growth inhibition): read-out: TGI
From the text: as §1, §2, §3, §4, §5, §6, §7

[5] = tested on: SK-MEL-28; assay: Inhibition of cell growth by colorimetric SRB assay, MEL-28; details: Homo sapiens, SK-MEL-28, MEL-28, 48 hours exposure; for CC50: cell killing, read-out: LC50 (the source's name); for IC (total growth inhibition): read-out: TGI
From the text: as §1, §2, §3, §4, §5, §6, §7

[6] = tested on: HT-29; assay: Inhibition of cell growth by colorimetric SRB assay, HT-29; details: Homo sapiens, HT-29, 48 hours exposure; for CC50: cell killing, read-out: LC50 (the source's name); for IC (total growth inhibition): read-out: TGI
From the text: as §1, §2, §3, §4, §5, §6, §7

[7] = tested on: HeLa; assay: Inhibition of cell growth by colorimetric SRB assay, HELA; details: Homo sapiens, HELA, 48 hours exposure; for CC50: cell killing, read-out: LC50 (the source's name); for IC (total growth inhibition): read-out: TGI
From the text: as §1, §2, §3, §4, §5, §6, §7

[8] = tested on: LoVo-Dox; assay: Inhibition of cell growth by colorimetric SRB assay, LOVO-DOX; details: Homo sapiens, LOVO-DOX, 48 hours exposure; for LC50 (concentration for 50% cell killing): read-out: LC50; for IC (total growth inhibition): read-out: TGI
From the text: as §1, §2, §3, §4, §5, §6, §7

[9] = tested on: LNCaP; assay: Inhibition of cell growth by colorimetric SRB assay, LN-caP; details: Homo sapiens, LN-caP, 48 hours exposure
From the text: as §1, §2, §3, §4, §5, §6, §7

[10] = tested on: IGROV-ET; assay: Inhibition of cell growth by colorimetric SRB assay, IGROV-ET; details: Homo sapiens, IGROV-ET, 48 hours exposure; for CC50: cell killing, read-out: LC50 (the source's name); for IC (total growth inhibition): read-out: TGI
From the text: as §1, §2, §3, §4, §5, §6, §7

[11] = tested on: PANC-1; assay: Inhibition of cell growth by colorimetric SRB assay, PANC-1; details: Homo sapiens, PANC-1, 48 hours exposure; for CC50: cell killing, read-out: LC50 (the source's name); for IC (total growth inhibition): read-out: TGI
From the text: as §1, §2, §3, §4, §5, §6, §7

[12] = tested on: DU-145; assay: Inhibition of cell growth by colorimetric SRB assay, DU-145; details: Homo sapiens, DU-145, 48 hours exposure; for CC50: cell killing, read-out: LC50 (the source's name); for IC (total growth inhibition): read-out: TGI
From the text: as §1, §2, §3, §4, §5, §6, §7

[13] = tested on: IGROV; assay: Inhibition of cell growth by colorimetric SRB assay, IGROV; details: Homo sapiens, 48 hours exposure; for CC50: cell killing, read-out: LC50 (the source's name); for IC (total growth inhibition): read-out: TGI
From the text: as §1, §2, §3, §4, §5, §6, §7

[14] = tested on: SK-BR-3; assay: Inhibition of cell growth by colorimetric SRB assay, SK-BR-3; details: SK-BR-3, 48 hours exposure; for GI50 / CC50: Homo sapiens; for CC50: cell killing, read-out: LC50 (the source's name); for TGI: total growth inhibition
From the text: as §1, §2, §3, §4, §5, §6, §7

[15] = cell killing, read-out: LC50 (the source's name)
[16] = total growth inhibition, read-out: TGI

| Structure (SMILES) | GI50 [2] | LC50 [2] | IC (total growth inhibition) [2] | CC50 ([3]; HELA-APL, 48 hours exposure) | GI50 [4] | CC50 [4] | IC (total growth inhibition) [4] | GI50 [5] | CC50 [5] | IC (total growth inhibition) [5] | GI50 [7] | CC50 [7] | IC (total growth inhibition) [7] | GI50 [8] | LC50 (concentration for 50% cell killing) [8] | IC (total growth inhibition) [8] | GI50 [10] | CC50 [10] | IC (total growth inhibition) [10] | GI50 [11] | other results |
| --- | --- | --- | --- | --- | --- | --- | --- | --- | --- | --- | --- | --- | --- | --- | --- | --- | --- | --- | --- | --- | --- |
| C/C=C\[C@H](C)[C@H]1OC1(C)[C@@H](O[Si](C)(C)C(C)(C)C)[C@@H](COC(C)=O)C(=O)[C@H](COC(C)=O)[C@@H](CC(=O)CC)OC(C)=O (some centres unmarked) [Compound 45] | 8.26 µM | 16.3 µM | 16.3 µM | 16.3 µM | 16.3 µM | 16.3 µM | 16.3 µM | 16.3 µM | 16.3 µM | 16.3 µM | 16.3 µM | 16.3 µM | 16.3 µM | 10.5 µM | 16.3 µM | 16.3 µM | 15.8 µM | 16.3 µM | 16.3 µM | 8.24 µM | GI50 [1]: 16.3 µM; CC50 [1, 15]: 16.3 µM; IC (total growth inhibition) [1, 16]: 16.3 µM; GI50 ([3]; 48 h): 16.3 µM; GI50 [6]: 16.3 µM; CC50 [6]: 16.3 µM; IC (total growth inhibition) [6]: 16.3 µM; GI50 [9]: 8.34 µM; CC50 [9, 15]: 16.3 µM; IC (total growth inhibition) [9, 16]: 16.3 µM; CC50 [11]: 16.3 µM; IC (total growth inhibition) [11]: 16.3 µM; GI50 [12]: 16.3 µM; CC50 [12]: 16.3 µM; IC (total growth inhibition) [12]: 16.3 µM; GI50 [13]: 16.3 µM; CC50 [13]: 16.3 µM; IC (total growth inhibition) [13]: 16.3 µM |
| C/C=C\[C@H](C)[C@H]1OC1(C)[C@@H](O[Si](C)(C)C(C)(C)C)[C@@H](CO[Si](C)(C)C(C)(C)C)C(=O)[C@@H](CO[Si](C)(C)C(C)(C)C)[C@H](CC(=O)CC)O[Si](C)(C)C(C)(C)C (some centres unmarked) [Compound 30a] | 6.37 µM | 12.1 µM | 12.1 µM | 12.1 µM | 12.1 µM | 12.1 µM | 12.1 µM | 12.1 µM | 12.1 µM | 12.1 µM | 12.1 µM | 12.1 µM | 12.1 µM | 12.1 µM | 12.1 µM | 12.1 µM | 8.27 µM | 12.1 µM | 12.1 µM | 12.1 µM | GI50 [14]: 8.56 µM; CC50 [14]: 12.1 µM; TGI [14]: 1.21E−05 Molar; CC50 [11]: 12.1 µM; IC (total growth inhibition) [11]: 12.1 µM; GI50 [12]: 12.1 µM; CC50 [12]: 12.1 µM; IC (total growth inhibition) [12]: 12.1 µM |
| C/C=C\[C@H](C)[C@H]1OC1(C)[C@@H](O[Si](C)(C)C(C)(C)C)[C@@H](CO)C(=O)[C@@H](CO)[C@H](O)CC(=O)CC (some centres unmarked) [31b + 31d] | 20.5 µM | 20.5 µM | 20.5 µM | 20.5 µM | 20.5 µM | 20.5 µM | 20.5 µM | 20.5 µM | 20.5 µM | 20.5 µM | 20.5 µM | 20.5 µM | 20.5 µM | 20.5 µM | 20.5 µM | 20.5 µM | 20.5 µM | 20.5 µM | 20.5 µM | 12.6 µM | GI50 [14]: 20.2 µM; CC50 [14]: 20.5 µM; TGI [14]: 2.05E−05 Molar; GI50 [6]: 20.5 µM; CC50 [6]: 20.5 µM; IC (total growth inhibition) [6]: 20.5 µM; CC50 [11]: 20.5 µM; IC (total growth inhibition) [11]: 20.5 µM; GI50 [12]: 20.5 µM; CC50 [12]: 20.5 µM; IC (total growth inhibition) [12]: 20.5 µM; GI50 [13]: 16.5 µM; CC50 [13]: 20.5 µM; IC (total growth inhibition) [13]: 20.5 µM |
| C/C=C\[C@H](C)[C@H]1OC1(C)[C@@H](O)[C@@H](CO)C(=O)[C@@H](CO)[C@H](O)CC(=O)CC (some centres unmarked) [3d + 4d] | 26.8 µM | 26.8 µM | 26.8 µM | 26.8 µM | 26.8 µM | 26.8 µM | 26.8 µM | 26.8 µM | 26.8 µM | 26.8 µM | 26.8 µM | 26.8 µM | 26.8 µM | 26.8 µM | 26.8 µM | 26.8 µM | 17.1 µM | 26.8 µM | 26.8 µM | 13.5 µM | GI50 ([3]; HELA-APL, 48 hours exposure, read-out: GI50): 26.8 µM; IC (total growth inhibition) ([3]; HELA-APL, 48 hours exposure, total growth inhibition, read-out: TGI): 26.8 µM; GI50 [14]: 20.5 µM; CC50 [14]: 26.8 µM; TGI [14]: 2.68E−05 Molar; GI50 [6]: 26.8 µM; CC50 [6]: 26.8 µM; IC (total growth inhibition) [6]: 26.8 µM; CC50 [11]: 26.8 µM; IC (total growth inhibition) [11]: 26.8 µM; GI50 [12]: 26.8 µM; CC50 [12]: 26.8 µM; IC (total growth inhibition) [12]: 26.8 µM; GI50 [13]: 20.5 µM; CC50 [13]: 26.8 µM; IC (total growth inhibition) [13]: 26.8 µM |
| C/C=C\[C@H](C)[C@H]1OC1(C)[C@@H](O[Si](C)(C)C(C)(C)C)[C@@H](CO[Si](C)(C)C(C)(C)C)C(=O)[C@@H](CO[Si](C)(C)C(C)(C)C)[C@@H](CC(=O)CC)O[Si](C)(C)C(C)(C)C (some centres unmarked) [Compound 30b] | 6.88 µM | 12.1 µM | 12.1 µM | 12.1 µM | 12.1 µM | 12.1 µM | 12.1 µM | 12.1 µM | 12.1 µM | 12.1 µM | 12.1 µM | 12.1 µM | 12.1 µM | 12.1 µM | 12.1 µM | 12.1 µM | 8.27 µM | 12.1 µM | 12.1 µM | 12.1 µM | GI50 [14]: 12.1 µM; CC50 [14]: 12.1 µM; TGI [14]: 1.21E−05 Molar; CC50 [11]: 12.1 µM; IC (total growth inhibition) [11]: 12.1 µM; GI50 [12]: 12.1 µM; CC50 [12]: 12.1 µM; IC (total growth inhibition) [12]: 12.1 µM |
